Assay results from US8729279B2, “Agent for promoting osteoblast differentiation, pharmaceutical composition for promoting bone formation, and food for special dietary use containing auraptene analog as active ingredient” (Erina Co., Inc., priority 2010, dated 2014).

How the values were obtained:
MC3T3-E1 cells [1] = test: Effect on osteoblast proliferation (MTT); format: cell-based, mouse; settings: compound 1, 3, 10 or 30 μM, 3 days, FIG. 1
Description: The effect on osteoblast proliferation was determined by the following method.
MC3T3-E1 cells were suspended in α-MEM and plated on each well of a 96-well microplate at a concentration of 2×10^3 cells/well. After overnight incubation in 10% fetal bovine serum (FBS)-containing α-MEM under a condition of 37° C. and 5% CO2, the culture medium was replaced with 10% FBS-containing α-MEM containing a compound at a concentration of 1, 3, 10 or 30 μM and cultured for 3 days. The cells cultured in the same manner using the medium containing the same amount of solvent only were used as a control.
Added was 3-(4,5-Dimethylthiazol-2-yl)-2,5-diphenyltetrazolium bromide (MTT) (5 mg/ml in PBS) in one-tenth amount of the culture medium 2 hours before the completion of incubation. After 2-hour cultivation, the medium was removed, formazan formed by viable cells was dissolved in DMSO and the absorbance at 570 nm (reference wavelength of 630 nm) was measured with a plate reader. The relative cell numbers were determined by calculating the values taking the control as 100 (average plus or minus standard deviation of 4 wells or more; the same hereinafter).

MC3T3-E1 cells [2] = test: Osteoblast calcification, alizarin red S staining; format: cell-based, mouse; settings: compared with control
Description: 3. Effects on Osteoblast Calcification MC3T3-E1 cells were suspended in α-MEM and plated in each well of a 96-well microplate at a concentration of 5×10^3 cells/well and pre-incubated for 2 days in 10% FBS-containing α-MEM under a condition of 37° C. and 5% CO2. Thereafter, the culture medium was replaced with 10% FBS-containing α-MEM containing a compound at a concentration of 1, 3, 10 or 30 μM, 50 μg/ml ascorbic acid and 10 mM β-glycerophosphoric acid, and the cells were cultured for 10 days. During the incubation, the culture medium was changed once in every 3 or 4 days.
After incubation, the cells were fixed with 70% ethanol, the dishes were dried, and calcium deposits were stained with a 1% alizarin red S solution. The image of the stained plate was obtained using a scanner. In addition, the degree of stain (degree of calcification) was evaluated by naked eyes.

MC3T3-E1 cells [3] = test: Initial osteoblast differentiation, alkaline phosphatase (ALP) activity; format: cell-based, mouse; settings: compound 1-100 μM, 6 days; FIG. 2 solid bars
Description: (§1) MC3T3-E1 cells which are mouse pre-osteoblastic cells were suspended in α-MEM and plated on each well of a 96-well microplate at a concentration of 5×10^3 cells/well. After 2-day pre-incubation in 10% FBS-containing α-MEM under a condition of 37° C. and 5% CO2, the culture medium was replaced with 10% FBS-containing α-MEM containing a compound at a concentration of 1, 3, 10, 30 or 100 μM and the cells were cultured for 6 days. During the incubation, the culture medium was replaced once in every 3 days. The cells cultured in the same manner using the medium without coumarin compounds were used as a control.
(§2) In addition, the activity of alkaline phosphatase (ALP), a marker enzyme of initial osteoblast differentiation, was measured by the following method. After incubation, the cells were fixed with cold methanol, and the dishes were dried. 100 μl of buffer of pH 8.5 containing 2 mM magnesium chloride and 100 mM Tris-HCl, with 6.7 mM p-nitrophenylphosphate as a substrate, was dispensed in each well and allowed to react at 37° C. for 30 minutes. Then, 100 μl of 0.1 N sodium hydroxide was added to terminate the reaction, followed by measurement with a plate reader of the absorbance at 405 nm, which was determined to be the ALP activity. The value was calculated by taking the control as 100.

RAW264 cells [4] = test: Osteoclast differentiation, TRAP activity; format: cell-based, mouse; settings: RANKL 50 ng/ml, 3 days; FIG. 7 solid bars
Description: RAW264 cells (mouse monocyte/macrophage cell line, cell No. RCB0535) were purchased from RIKEN Cell Bank. The osteoclast differentiation-inducing factor (RANKL) was obtained from Wako Pure Chemical Industries, Ltd. Others used were the same as above.
(§3) RAW264 cells were suspended in α-MEM and plated in a 96-well microplate at a concentration of 3×10^3 cells/well. The compounds of the present invention at each concentration and the osteoclast differentiation-inducing factor (RANKL) were added at 50 ng/ml and the cells were cultured for 3 days in an incubator at 37° C. and 5% CO2. After incubation, the cells were fixed with a 10% formalin solution and refixed with 100% ethanol.
After the dishes were dried, as an index of differentiation, the activity of tartrate-resistant acid phosphatase (TRAP), a marker enzyme of osteoclasts, was measured by the following method.
For measurement of the TRAP activity, a buffer containing 10 mM tartrate and 50 mM citrate of pH 4.6, with 3.7 mM p-nitrophenylphosphate as a substrate, was used. […] Thereafter, 100 μl of 0.1 N sodium hydroxide was added to terminate the reaction, followed by measurement of the absorbance at 405 nm with a plate reader. Each absorbance was determined to be the TRAP activity, and the value calculated by taking control as 100 was shown.

MC3T3-E1 cells [5] = test: Cell number (MTT) in initial osteoblast differentiation culture; format: cell-based, mouse; settings: compound 1-100 μM, 6 days, FIG. 2 open bars
Description: as §1
At the end of incubation, the cell number was measured by the same method as above using a MTT reagent and the value was calculated by taking the control as 100.

MC3T3-E1 cells [6] = test: Expression of genes related to osteoblast differentiation, real-time RT-PCR; format: cell-based, mouse; settings: compared with control
Description: The effects on the expression of various genes related to osteoblast differentiation were analyzed using the real-time RT-PCR method.
MC3T3-E1 cells were plated in each well of a 6-well plate (Greiner) at a concentration of 1.5×10^5 cells/well and cultured in the same manner as above. […] After incubation, the culture medium was removed and the cells were washed with PBS. Thereafter, “ISOGEN” (trade name, Wako Pure Chemical Industries, Ltd.) was added in an amount of 1 ml/well and the cells were collected. RNA purification was conducted according to the protocol described in the package insert of “ISOGEN”.
Reverse transcription was performed using “PrimeScript RT-PCR Kit” (trade name, TaKaRa) with 2 μg of purified RNA according to the protocol described in the package insert, thereby synthesizing the cDNA sample.
Real-time PCR was performed using “FastStart Universal SYBR Green Master (Rox)” (trade name, Roche) according to the protocol described in the package insert under the following conditions: incubation at 50° C. for 2 min and at 95° C. for 10 min, followed by 50 cycles of 15 sec at 95° C. and 1 min at 60° C. Data were analyzed with “ABI PRISM 7300 sequence detection system” (trade name, Applied Biosystems).
Primers used were as described in the following Table 2.
Data analysis was performed as follows using β-actin as an endogenous control gene by the comparative Ct method.
Δ Ct=(Ct of target gene)−(Ct of endogenous control gene)
ΔΔ Ct=(Δ Ct of target sample)−(Δ Ct of reference sample)
Relative expression level of target gene of target sample to that of reference sample=2 (^−ΔΔ^Ct)

MC3T3-E1 cells [7] = test: Comparison with BMP-2 and effect of BMP signal inhibitors on ALP activity; format: cell-based, mouse; settings: 6 days
Description: as §2
Upon the addition of the sample, the cells were cultured for 6 days in the presence or absence of 10 ng/ml Noggin, a BMP inhibitor, or 1 μM Dorsomorphin, an inhibitor of type I BMP receptor (ALK) (the above concentrations are the final concentrations), and the ALP activities were measured in the same manner as above.

[8] = tested on: Postmenopausal osteoporosis model mice; test: Bone formation-promoting effect in vivo, ovariectomized mice, femur pQCT; design: species or system mouse; settings: OVX mice, 50 mg/kg/day oral, 30+30 days, versus OVX-Con
Description: Postmenopausal osteoporosis model mice were prepared by ovariectomy and test compounds were administrated to the mice with decreased bone mass, to examine the effects on bone formation in vivo level.
Slc; ddY mice (4 week-old, female) were purchased from Chubu Kagaku Shizai Co., Ltd. After 2 days, ovariectomy (“OVX”) or sham operation (“Sham”) was performed under Nembutal anesthesia. After the mice were bred for 1 month in order to decrease bone mass due to the progression in bone resorption, a part of mice in each group (OVX: N=5, Sham: N=3) were killed to collect the femurs. The rest of mice in the ovariectomy (“OVX”) group were divided into two groups: solvent administration group (“OVX-Con”: N=6) and auraptene administration group (50 mg/kg/day, oral administration, “OVX-AUR”: N=6) and bred for another month together with the sham operation group (Sham-Con: N=6). Thereafter, the mice were killed to collect the femurs.
The bone mineral content density and the like of the collected femurs were measured by means of pQCT (peripheral Quantitative Computed Tomography) using a bone density measuring apparatus (trade name “XCT Research SA+”, manufactured by Stratec Medizintechnik GmbH).

RAW264 cells [9] = test: Cell number (MTT) in osteoclast differentiation culture; format: cell-based, mouse; settings: RANKL 50 ng/ml, 3 days, FIG. 7 open bars
Description: as §3
In addition, after similarly cultured, the cells were counted by a conventional method using a MTT reagent, and the value calculated by taking the control as 100 was shown.

CC(C)=CCC/C(C)=C/COc1ccc2ccc(=O)oc2c1 [auraptene, 2H-1-benzopyran-2-one, 7-[[(2E)-3,7-dimethyl-2,6-octadiene-1-yl]oxy]-]
cell number of MC3T3-E1 cells (relative, control as 100) (MC3T3-E1 cells [1]): little change in cell number
calcified portions stained red (MC3T3-E1 cells [2]): remarkably increased compared with control
ALP activity (control as 100) (MC3T3-E1 cells [3]): increased in a concentration-dependent manner
TRAP activity as an index of osteoclast differentiation (RAW264 cells [4]): do not affect osteoclast differentiation
cell viability of MC3T3-E1 cells (control as 100) (MC3T3-E1 cells [5]): little influence on cell viability
expression of ALP gene (MC3T3-E1 cells [6]; auraptene 30 μM or BMP-2 50 ng/ml, FIG. 5A): increased
expression of osteocalcin gene (MC3T3-E1 cells [6]; auraptene 30 μM or BMP-2 50 ng/ml, FIG. 5B): increased
expression of Runx 2 gene (MC3T3-E1 cells [6]; auraptene 30 μM or BMP-2 50 ng/ml, FIG. 5C): increased
expression of Osterix gene (MC3T3-E1 cells [6]; auraptene 30 μM or BMP-2 50 ng/ml, FIG. 5D): increased
expression of BMP-2 gene (MC3T3-E1 cells [6]; auraptene 30 μM, FIG. 5E): increased
expression of BMP-4 gene (MC3T3-E1 cells [6]; auraptene 30 μM, FIG. 5F): increased
effect of promoting ALP activity in presence of Dorsomorphin (MC3T3-E1 cells [7]; Dorsomorphin 1 μM, auraptene 30 μM or BMP-2 25 ng/ml): diminished
effect of promoting ALP activity in presence of Noggin (MC3T3-E1 cells [7]; Noggin 10 ng/ml, auraptene 30 μM or BMP-2 25 ng/ml): diminished
effect of promoting ALP activity (MC3T3-E1 cells [7]; auraptene 30 μM versus BMP-2 25 ng/ml, FIG. 4): equivalent to or more than that with BMP-2 (25 ng/ml)
trabecular bone mineral density ([8]; FIG. 6A): tended to be high
total bone mineral density ([8]; FIG. 6B): tended to be high
cortical bone periosteal circumference ([8]; FIG. 6C): tended to be long
cortical bone endosteal circumference ([8]; FIG. 6D): tended to be long
cell number of RAW264 cells (control as 100) (RAW264 cells [9]): did not show a significant influence
